Source: patent US20180305657A1, “Bioactive Fungi” (Agriculture Victoria Services PTY LTD, priority 2015, published 2018)
Read-outs that look alike come from different tables or passages of the source.

Key:
[1] = tested on: Tribolium castaneum
Method: A total of 20 chemical standards were evaluated for their insecticidal activity against the stored grain pest, Tribolium castaneum. These chemical standards represented compounds in the volatolome of Daldinia sp. or were structural analogues of these compounds (Table 5). […] The insect pest was inoculated on to one half of the Petri plate by placing 4 insects onto feed (wheat flour and yeast). A chemical standard was then aliquoted (5 microlitre) on to the other half of the Petri plate on filter paper. Plates were immediately sealed with Parafilm®, covered in aluminium foil (i.e. in the dark) and maintained at room temperature. The mortality of insects was monitored daily by assessing insect movement as an indicator of mortality. The mortality was calculated by comparing the number of dead insects to the total number in the plate, and expressed as percentage mortality (Tables 6). Data were analysed using ANOVA as performed in GenStat, version 14. The experiment was fully randomised with 5 replicates for each endophyte.

[2] = tested on: T. castaneum
Method: The bioassays were conducted in 1 litre Schott bottles. The insect pest was inoculated into the bioassay by placing 9-12 insects onto feed (wheat flour and yeast). The biocidal compounds were then aliquoted into the bioassay at volumes ranging from 20-200 microlitres, ensuring no direct contact with the insect. Bottles were immediately sealed with Parafilm® and maintained at room temperature. The mortality of insects was monitored daily for three days exposure, by assessing insect movement as an indicator of mortality. The mortality was calculated by comparing the number of dead insects to the total number in the bioassay, and expressed as percentage mortality. Data were analysed using ANOVA as performed in GenStat, version 14. The experiment was fully randomised with 4 replicates for each endophyte.

[3] = tested on: Pseudomonas syringae; assay: Bactericidal bioassay, compounds alone or in synergy; type: cell-based; conditions: for Growth Scale: compound alone, 10 μL, 3 days, 2 equivalent growth to control, 1 less growth, 0 no growth; for activity against P. syringae: used alone (acetaldehyde, isovaleraldehyde: alone or in combination)
Source text: A bactericidal bioassay was established to evaluate the effect of the most insecticidal candidate compounds against the plant pathogenic bacterium Pseudomonas syringae, when applied alone or in synergy with other compounds from the volatolome of Daldinia sp. The pathogen was inoculated on to one third of the Petri plate by streaking bacterial cells from an actively growing culture (overnight) on to nutrient agar (NA). A candidate compound was then aliquoted (10 microlitres—except Acetaldehyde: 20 microlitres due to high volatility) onto another third of the Petri plate on filter paper. […] An untreated control was included and consisted of no compounds.

[4] = tested on: Fusarium verticillioides; assay: Fungicidal bioassay, compounds alone or in synergy; type: cell-based; conditions: for % Inhibition (v control): 4 days; for fungicidal activity against F. verticillioides: in isolation; for inhibition of growth of the pathogen: in isolation and in combination with any of the compounds tested
Source text: A fungicidal bioassay was established to evaluate the effect of key compounds from the volatolome of Daldinia sp. against the plant pathogenic fungus, Fusarium verticillioides, when applied alone and in synergy with other compounds from the volatolome of Daldinia sp. The pathogen was inoculated on to one third of the Petri plate by placing an agar plug of actively growing hyphae onto PDA. Candidate compounds were then aliquoted (10 microlitres) on to another third of the Petri plate on filter paper. […] After 4 days the growth of the pathogen was determined by measuring the radius of the colony (on two alternate planes).

Structure (SMILES): C1=CCCCC=C1 [1,3 Cycloheptadiene, 1,3-cycloheptadiene]
- % Mortality Day 1 ([1]; 5 microlitre, Day 1): 12.5%
- % Mortality Day 2 ([1]; 5 microlitre, Day 2): 20.8%
- % Mortality Day 3 ([1]; 5 microlitre, Day 3): 27.5%
- % Mortality Day 4 ([1]; 5 microlitre, Day 4): 27.5%

Structure (SMILES): CC1=CCC=CC1 [1-Methyl-1,4-cyclohexadiene]
- % Mortality Day 1 ([1]; 5 microlitre, Day 1): 0.0%
- % Mortality Day 2 ([1]; 5 microlitre, Day 2): 0.0%
- % Mortality Day 3 ([1]; 5 microlitre, Day 3): 0.0%
- % Mortality Day 4 ([1]; 5 microlitre, Day 4): 0.0%

Structure (SMILES): CC(=O)C(C)=O [2,3 Butanedione, 2,3-butanedione]
- % Mortality Day 1 ([1]; in vivo): 0.0%
- % Mortality Day 2 ([1]; in vivo): 0.0%
- % Mortality Day 3 ([1]; in vivo): 0.0%
- % Mortality Day 4 ([1]; in vivo): 0.0%
- mortality grouping in title of Table 5 ([1]; in vivo): 1,4-cyclohexadiene, Toluene, 2,3 Butanedione, Ethanol: 0% mortality).

Structure (SMILES): CCC(C)CO (stereo not shown) [2-Methyl-1-butanol]
- % Mortality Day 1 ([1]; 5 microlitre, Day 1): 80.0%
- % Mortality Day 2 ([1]; 5 microlitre, Day 2): 80.0%
- % Mortality Day 3 ([1]; 5 microlitre, Day 3): 80.0%
- % Mortality Day 4 ([1]; 5 microlitre, Day 4): 80.0%

Structure (SMILES): CCCC(C)O (stereo not shown) [2-Pentanol]
- % Mortality Day 1 ([1]; 5 microlitre, Day 1): 0.0%
- % Mortality Day 2 ([1]; 5 microlitre, Day 2): 0.0%
- % Mortality Day 3 ([1]; 5 microlitre, Day 3): 0.0%
- % Mortality Day 4 ([1]; 5 microlitre, Day 4): 0.0%

Structure (SMILES): CC(C)CCO [3-Methyl-1-butanol]
- % Mortality Day 1 ([1]; in vivo): 45.0%
- % Mortality Day 2 ([1]; in vivo): 45.0%
- % Mortality Day 3 ([1]; in vivo): 50.0%
- % Mortality Day 4 ([1]; in vivo): 50.0%

Structure (SMILES): CCC(O)CC [3-Pentanol]
- % Mortality Day 1 ([1]; 5 microlitre, Day 1): 100.0%
- % Mortality Day 2 ([1]; 5 microlitre, Day 2): 100.0%
- % Mortality Day 3 ([1]; 5 microlitre, Day 3): 100.0%
- % Mortality Day 4 ([1]; 5 microlitre, Day 4): 100.0%
- mortality after a 1 day exposure, 20 μL ([2]; in vivo): 100%
- mortality after a 1 day exposure, 50 μL ([2]; in vivo): 100%
- mortality after a 1 day exposure, 100 μL ([2]; in vivo): 100%
- mortality after a 1 day exposure, 150 μL ([2]; in vivo): 100%
- mortality after a 1 day exposure, 200 μL ([2]; in vivo): 100%
- mortality after one day ([2]; in vivo): 100%
- Growth Scale [3]: 2
- activity against P. syringae [3]: did not exhibit any activity
- % Inhibition (v control) ([4]; compound alone, 10 uL): 47.3%
- fungicidal activity against F. verticillioides [4]: moderate fungicidal activity

Structure (SMILES): CC(=O)CCO [4-Hydroxy-2-butanone]
- % Mortality Day 1 ([1]; 5 microlitre, Day 1): 4.0%
- % Mortality Day 2 ([1]; 5 microlitre, Day 2): 4.0%
- % Mortality Day 3 ([1]; 5 microlitre, Day 3): 4.0%
- % Mortality Day 4 ([1]; 5 microlitre, Day 4): 4.0%

Structure (SMILES): CC1CC=CCC1 (stereo not shown) [4-Methylcyclohexene]
- % Mortality Day 1 ([1]; 5 microlitre, Day 1): 4.0%
- % Mortality Day 2 ([1]; 5 microlitre, Day 2): 13.7%
- % Mortality Day 3 ([1]; 5 microlitre, Day 3): 17.7%
- % Mortality Day 4 ([1]; 5 microlitre, Day 4): 17.7%

Structure (SMILES): CC=O [Acetaldehyde]
- % Mortality Day 1 ([1]; 5 microlitre, Day 1): 36.0%
- % Mortality Day 2 ([1]; 5 microlitre, Day 2): 36.0%
- % Mortality Day 3 ([1]; 5 microlitre, Day 3): 36.0%
- % Mortality Day 4 ([1]; 5 microlitre, Day 4): 36.0%
- mortality after a 1 day exposure, 20 μL ([2]; Volume 20 μL in 1 litre bottle, 1 day): 2.3%
- mortality after a 1 day exposure, 50 μL ([2]; Volume 50 μL in 1 litre bottle, 1 day): 28.3%
- mortality after a 1 day exposure, 100 μL ([2]; Volume 100 μL in 1 litre bottle, 1 day): 98.2%
- mortality after a 1 day exposure, 150 μL ([2]; Volume 150 μL in 1 litre bottle, 1 day): 100%
- mortality after a 1 day exposure, 200 μL ([2]; Volume 200 μL in 1 litre bottle, 1 day): 100%
- mortality after a 1 day exposure ([2]; volumes ranging from 100-200 microlitres): 98.2-100.0%
- activity against P. syringae [3]: high bactericidal activity
- fungicidal activity against F. verticillioides [4]: high fungicidal activity
- inhibition of growth of the pathogen [4]: 100%

Structure (SMILES): CC(=O)C(C)O (stereo not shown) [Acetoin, acetoin]
- % Mortality Day 1 ([1]; 5 microlitre, Day 1): 100.0%
- % Mortality Day 2 ([1]; 5 microlitre, Day 2): 100.0%
- % Mortality Day 3 ([1]; 5 microlitre, Day 3): 100.0%
- % Mortality Day 4 ([1]; 5 microlitre, Day 4): 100.0%
- mortality after a 1 day exposure ([2]; in vivo): 100%
- mortality after a 1 day exposure, 20 μL ([2]; in vivo): 3%
- mortality after a 1 day exposure, 50 μL ([2]; in vivo): 100%
- mortality after a 1 day exposure, 100 μL ([2]; in vivo): 100%
- mortality after a 1 day exposure, 150 μL ([2]; in vivo): 100%
- mortality after a 1 day exposure, 200 μL ([2]; in vivo): 100%
- Growth Scale [3]: 2
- activity against P. syringae [3]: did not exhibit any activity
- % Inhibition (v control) ([4]; compound alone, 10 uL): 0%
- fungicidal activity against F. verticillioides [4]: no activity

Structure (SMILES): O=Cc1ccccc1 [Benzaldehyde]
- % Mortality Day 1 ([1]; 5 microlitre, Day 1): 0.0%
- % Mortality Day 2 ([1]; 5 microlitre, Day 2): 0.0%
- % Mortality Day 3 ([1]; 5 microlitre, Day 3): 0.0%
- % Mortality Day 4 ([1]; 5 microlitre, Day 4): 0.0%

Structure (SMILES): CCCC=O [Butyraldehyde]
- % Mortality Day 1 ([1]; in vivo): 31.5%
- % Mortality Day 2 ([1]; in vivo): 39.5%
- % Mortality Day 3 ([1]; in vivo): 39.5%
- % Mortality Day 4 ([1]; in vivo): 39.5%

Structure (SMILES): CCCC(=O)O [Butyric acid]
- % Mortality Day 1 ([1]; 5 microlitre, Day 1): 0.0%
- % Mortality Day 2 ([1]; 5 microlitre, Day 2): 0.0%
- % Mortality Day 3 ([1]; 5 microlitre, Day 3): 6.9%
- % Mortality Day 4 ([1]; 5 microlitre, Day 4): 6.9%

Structure (SMILES): CCO [Ethanol]
- % Mortality Day 1 ([1]; in vivo): 0.0%
- % Mortality Day 2 ([1]; in vivo): 0.0%
- % Mortality Day 3 ([1]; in vivo): 0.0%
- % Mortality Day 4 ([1]; in vivo): 0.0%
- mortality grouping in title of Table 5 ([1]; in vivo): 1,4-cyclohexadiene, Toluene, 2,3 Butanedione, Ethanol: 0% mortality).

Structure (SMILES): CC(C)CC=O [Isovaleraldehyde]
- % Mortality Day 1 ([1]; 5 microlitre, Day 1): 100.0%
- % Mortality Day 2 ([1]; 5 microlitre, Day 2): 100.0%
- % Mortality Day 3 ([1]; 5 microlitre, Day 3): 100.0%
- % Mortality Day 4 ([1]; 5 microlitre, Day 4): 100.0%
- mortality after a 1 day exposure ([2]; in vivo): 100%
- mortality after a 1 day exposure, 20 μL ([2]; in vivo): 3%
- mortality after a 1 day exposure, 50 μL ([2]; in vivo): 100%
- mortality after a 1 day exposure, 100 μL ([2]; in vivo): 100%
- mortality after a 1 day exposure, 150 μL ([2]; in vivo): 100%
- mortality after a 1 day exposure, 200 μL ([2]; in vivo): 100%
- Growth Scale [3]: 0.25
- activity against P. syringae [3]: high bactericidal activity
- % Inhibition (v control) ([4]; compound alone, 10 uL): 100.0%
- Activity (fungistatic or fungicidal) ([4]; compound alone, 10 uL, plug on fresh PDA plate): Fungicidal
- fungicidal activity against F. verticillioides [4]: high fungicidal activity
- inhibition of growth of the pathogen [4]: 100%

Structure (SMILES): C=C1CCCCC1 [Methylenecyclohexane]
- % Mortality Day 1 ([1]; 5 microlitre, Day 1): 8.0%
- % Mortality Day 2 ([1]; 5 microlitre, Day 2): 8.0%
- % Mortality Day 3 ([1]; 5 microlitre, Day 3): 16.0%
- % Mortality Day 4 ([1]; 5 microlitre, Day 4): 16.0%

Structure (SMILES): C1=CC2(C=C1)CC2 [Spiro[2.4]hepta-4,6-diene]
- % Mortality Day 1 ([1]; 5 microlitre, Day 1): 87.1%
- % Mortality Day 2 ([1]; 5 microlitre, Day 2): 100.0%
- % Mortality Day 3 ([1]; 5 microlitre, Day 3): 100.0%
- % Mortality Day 4 ([1]; 5 microlitre, Day 4): 100.0%
